# Assay results as given in patent US11304417B2, “Method of protecting determinate soybean from damage by a plant pathogen” (SUMITOMO CHEMICAL COMPANY, LIMITED, priority 2019, dated 2022).
# Legend:
# Assay type in all cases: in vivo
# [1] = tested on: Asian soybean rust (Phakopsora pachyrhizi); test: Foliar spray of mefentrifluconazole, Asian soybean rust inoculation, fresh weight of aerial part (Example 1 / Comparative Example 1); conditions: foliar spray 500 g per hectare, 14 days from inoculation
# Experimental: Determinate soybean is sown to a pot filled with a soil. It is incubated for 7 days in a greenhouse. Mefentrifluconazole spray liquid (prepared by diluting an aqueous suspension concentrate of mefentrifluconazole with water) is uniformly sprayed onto the foliage of determinate soybean at the amount of 200 L per hectare so that the application rate of mefentrifluconazole may be 500 g per hectare. On the next day of the spraying, a pathogen of Asian soybean rust (Phakopsora pachyrhizi) is inoculated to the foliage of determinate soybean. The determinate soybean is incubated in a greenhouse for 14 days from the inoculation, and then fresh weight of the aerial part of the determinate soybean is measured. It is confirmed that the fresh weight is equivalent to that of the control where determinate soybean is not treated with mefentrifluconazole and the pathogen is not inoculated (no-treatment-no-inoculation control) and is bigger than that of the control where determinate soybean is not treated with mefentrifluconazole and the pathogen is inoculated (no-treatment-inoculation control). The same procedure of the example 1 is repeated except for replacing determinate soybean with indeterminate soybean or semi-determinate soybean. It is confirmed that the fresh weight of indeterminate soybean or semi-determinate soybean is smaller than that of the corresponding no-treatment-no-inoculation control and is equivalent to that of the corresponding no-treatment-inoculation control.
# [2] = tested on: Asian soybean rust (Phakopsora pachyrhizi); test: Seed dipping with mefentrifluconazole, Asian soybean rust inoculation, fresh weight of aerial part (Example 4 / Comparative Example 4); conditions: 200 g per hectare; for Treatment/control ratio (100 × A/B): seed dipping 0.2 mg per seed, 7 days from inoculation; for Protection from the damage by the pathogen: seed dipping
# Experimental: Seeds of two varieties of determinate soybean were separately dipped in a mefentrifluconazole dilution liquid (prepared by diluting an aqueous suspension concentrate of mefentrifluconazole with water) so that the amount of mefentrifluconazole to be applied to each seed might be 0.2 mg. Then, the determinate soybean seeds were sown to a pot filled with a soil at a sowing rate of 1,000,000 seeds per hectare. That is, the application rate of mefentrifluconazole was 200 g per hectare. Each determinate soybean was incubated in a greenhouse for 11 days from the sowing, and then a pathogen of Asian soybean rust (Phakopsora pachyrhizi) was inoculated to the foliage of each determinate soybean. Each determinate soybean was incubated in a greenhouse for 7 days from the inoculation, and then fresh weight of the aerial part of each determinate soybean was measured. The fresh weight is referred to as ‘the fresh weight in treatment plot’. As a control experiment, the same procedure was repeated except that dipping treatment with mefentrifluconazole dilution liquid and the inoculation of the pathogen were not conducted. The fresh weight obtained in the control experiment is referred to as ‘the fresh weight in control plot’. The same procedure of the example 4 was repeated except for replacing two varieties of determinate soybean with two varieties of indeterminate soybean.
# [3] = tested on: Asian soybean rust (Phakopsora pachyrhizi); test: Dripping mefentrifluconazole onto primary leaf, Asian soybean rust inoculation, fresh weight of aerial part (Example 3 / Comparative Example 3); conditions: dripped onto primary leaf 0.2 mg per plant, 200 g per hectare, 14 days from inoculation
# Experimental: Determinate soybean is sown to a pot filled with a soil at a sowing rate of 1,000,000 seeds per hectare. The determinate soybean is incubated for 10 days in a greenhouse, and then mefentrifluconazole dilution liquid (prepared by diluting an aqueous suspension concentrate of mefentrifluconazole with water) is dripped onto the primary leaf of determinate soybean so that the amount of mefentrifluconazole to be applied to each plant may be 0.2 mg. That is, the application rate of mefentrifluconazole is 200 g per hectare. On the next day of the application, a pathogen of Asian soybean rust (Phakopsora pachyrhizi) is inoculated to the foliage of determinate soybean. The determinate soybean is incubated in a greenhouse for 14 days from the inoculation, and then fresh weight of the aerial part of the determinate soybean is measured. It is confirmed that the fresh weight is equivalent to that of the control where determinate soybean is not treated with mefentrifluconazole and the pathogen is not inoculated (no-treatment-no-inoculation control) and is bigger than that of the control where determinate soybean is not treated with mefentrifluconazole and the pathogen is inoculated (no-treatment-inoculation control).
# The same procedure of the example 3 is repeated except for replacing determinate soybean with indeterminate soybean or semi-determinate soybean. It is confirmed that the fresh weight of indeterminate soybean or semi-determinate soybean is smaller than that of the corresponding no-treatment-no-inoculation control and is equivalent to that of the corresponding no-treatment-inoculation control.
# [4] = tested on: Asian soybean rust (Phakopsora pachyrhizi); test: Seed coating with mefentrifluconazole, Asian soybean rust inoculation, fresh weight of aerial part (Example 2 / Comparative Example 2); conditions: seed coating 0.2 mg per seed, 20 g per hectare, 14 days from inoculation
# Experimental: Seeds of determinate soybean are coated with a mefentrifluconazole aqueous suspension concentrate so that the amount of mefentrifluconazole to be applied to each seed may be 0.2 mg. Then, the determinate soybean seeds are sown to a pot filled with a soil at a sowing rate of 100,000 seeds per hectare. That is, the application rate of mefentrifluconazole is 20 g per hectare. Then, the determinate soybean is incubated in a greenhouse for 10 days, followed by inoculating a pathogen of Asian soybean rust (Phakopsora pachyrhizi) to the foliage of determinate soybean. The determinate soybean is incubated in a greenhouse for 14 days from the inoculation, and then the fresh weight of the aerial part of the determinate soybean is measured. It is confirmed that the fresh weight is equivalent to that of the control where determinate soybean is not treated with mefentrifluconazole and the pathogen is not inoculated (no-treatment-no-inoculation control) and is bigger than that of the control where determinate soybean is not treated with mefentrifluconazole and the pathogen is inoculated (no-treatment-inoculation control). The same procedure of the example 2 is repeated except for replacing determinate soybean with indeterminate soybean or semi-determinate soybean. It is confirmed that the fresh weight of indeterminate soybean or semi-determinate soybean is smaller than that of the corresponding no-treatment-no-inoculation control and is equivalent to that of the corresponding no-treatment-inoculation control.
# [5] = tested on: Asian soybean rust (Phakopsora pachyrhizi); test: Dripping mefentrifluconazole onto apical bud, Asian soybean rust inoculation, fresh weight of aerial part (Example 5 / Comparative Example 5); conditions: 500 g per hectare; for Treatment/control ratio (100 × A/B): dripped onto apical bud 0.5 mg per plant, 7 days from inoculation
# Experimental: Two varieties of determinate soybean were sown to a pot filled with a soil at a sowing rate of 1,000,000 seeds per hectare. Then each determinate soybean was incubated for […] in a greenhouse. A mefentrifluconazole dilution liquid (prepared by diluting an aqueous suspension concentrate of mefentrifluconazole with water) is dripped onto the apical bud of determinate soybean plants so that the amount of mefentrifluconazole to be applied to each plant might be 0.5 mg. That is, the application rate of mefentrifluconazole was 500 g per hectare. Three days after the application, a pathogen of Asian soybean rust (Phakopsora pachyrhizi) was inoculated to the foliage of each determinate soybean. Each determinate soybean was incubated in a greenhouse for 7 days from the inoculation, and then fresh weight of the aerial part of each determinate soybean was measured. The fresh weight is referred to as ‘the fresh weight in treatment plot’.
# As a control experiment, the same procedure was repeated except that dripping treatment with mefentrifluconazole dilution liquid and the inoculation of the pathogen were not conducted. The fresh weight obtained in the control experiment is referred to as ‘the fresh weight in control plot’.
# The same procedure of the example 5 was repeated except for replacing two varieties of determinate soybean with two varieties of indeterminate soybean.
# [6] = indeterminate or semi-determinate soybean
# [7] = Kurosengoku, indeterminate soybean
# [8] = Toyomusume, determinate soybean
structure (smiles),measurement,setting,value
CC(O)(Cn1cncn1)c1ccc(Oc2ccc(Cl)cc2)cc1C(F)(F)F (centres unmarked) [mefentrifluconazole],Fresh weight of aerial part compared with no-treatment-inoculation control,[1]; determinate soybean,bigger
same,Fresh weight of aerial part compared with no-treatment-no-inoculation control,[1]; determinate soybean,equivalent
same,Fresh weight of aerial part compared with no-treatment-inoculation control,[1]; [6],equivalent
same,Fresh weight of aerial part compared with no-treatment-no-inoculation control,[1]; [6],smaller
same,Treatment/control ratio (100 × A/B),"[2]; Harosoy, indeterminate soybean",55
same,Treatment/control ratio (100 × A/B),[2]; [7],68
same,Treatment/control ratio (100 × A/B),"[2]; Tambaguro, determinate soybean",104
same,Treatment/control ratio (100 × A/B),[2]; [8],105
same,Protection from the damage by the pathogen,[2]; determinate soybean (Table 1),successfully protected
same,Protection from the damage by the pathogen,[2]; indeterminate soybean (Table 2),not successfully protected
same,Fresh weight of aerial part compared with no-treatment-inoculation control,[3]; determinate soybean,bigger
same,Fresh weight of aerial part compared with no-treatment-no-inoculation control,[3]; determinate soybean,equivalent
same,Fresh weight of aerial part compared with no-treatment-inoculation control,[3]; [6],equivalent
same,Fresh weight of aerial part compared with no-treatment-no-inoculation control,[3]; [6],smaller
same,Fresh weight of aerial part compared with no-treatment-inoculation control,[4]; determinate soybean,bigger
same,Fresh weight of aerial part compared with no-treatment-no-inoculation control,[4]; determinate soybean,equivalent
same,Fresh weight of aerial part compared with no-treatment-inoculation control,[4]; [6],equivalent
same,Fresh weight of aerial part compared with no-treatment-no-inoculation control,[4]; [6],smaller
same,Treatment/control ratio (100 × A/B),[5]; [7],49
same,Treatment/control ratio (100 × A/B),"[5]; Tambaguro, determinate soybean",82
same,Treatment/control ratio (100 × A/B),[5]; [8],85
same,Treatment/control ratio (100 × A/B),"[5]; Williams 82, indeterminate soybean",39
same,Protection from the damage by the pathogen,"[5]; determinate versus indeterminate soybeans (Tables 3 and 4), dripped onto apical bud",protected much more effectively compared with indeterminate soybeans
